Data on 3 compounds can be found in patent US20130102580A1, “COMPOSITIONS AND METHODS RELATED TO DEOXYCHOLIC ACID AND ITS POLYMORPHS” (Kythera Biopharmaceuticals, Inc., priority 2011, published 2013).

Format in all cases: physicochemical
A short description of series [1]: Slurry stability in EtOH/water (XRPD). The method, then: To evaluate form stability under slurry conditions, Forms A and B were slurried in about 1:1.2 v/v EtOH/water at ambient temperature and at 50° C. […] Approximately 217 mg of DCA Form B was mixed with 1.5 mL of EtOH/water (1:2.37 v/v). The mixture was heated at 50° C. with stirring for 2 hours and an aliquot was filtered to isolate wet solids for XRPD analysis.

Series [2] in a line: Form conversions via heating (XRPD). The method, then: 20 mg of DCA Form B was weighed in an alumina crucible and heated from 30° C. to 150° C. at a ramp rate of 10° C./min and then held at 150° C. for 30 minutes. The material was cooled to ambient temperature rapidly on the instrument and analyzed by XRPD.
19 mg of DCA Form B was weighed in an alumina crucible and heated from 30° C. to 135° C. at a ramp rate of 10° C./min and then held at 135° C. for 30 minutes. The material was cooled to ambient temperature rapidly on the instrument and analyzed by XRPD.

The nature of series [3]: Drying experiments: form conversion and stability on drying under vacuum (XRPD, HPLC). The following applies: for Degradation by HPLC after drying: dried further for 24 hours. The method, then:
Conversion of Form C to Form B was evaluated at 40° C. under vacuum. Two different lots of 215 mg and 134 mg of Form C were dried under vacuum at 40° C.
To evaluate the stability of DCA Form B at 50° C. and 70° C., two lots of Form C were dried at 50° C. and 70° C. for 2 hours. […] The samples were dried further for 24 hours and retained for HPLC analysis.
Another drying study was performed to evaluate the stability of Form B DCA dried at 50° C. with deionized water (DI-water) and EtOH. Samples of DCA (2.0 g) were combined with DI water and EtOH. The samples were then dried under vacuum for an extended period of time at 50° C.
The form conversion of Form C to Form B at approximately 45° C. under vacuum was analyzed by XRPD every 20 minutes. FIG. 4 graphically illustrates the conversion of the Form C to Form B upon heating.
All the experiments were cooled at 10° C./h to 20° C. and left to stir overnight. A final portion of deionized water (Water #3) was added and the mixtures were stirred for 3 hours.

A further series can be described thus: Humidity stress (XRPD). The procedure: Approximately 15 mg of Form B lot was stored at 95% relative humidity (RH) at ambient temperature. […] This surprising humidity/temperature stability of Form B was further evidenced from the following experiments. Form B samples were stored at 95% relative humidity (RH) and ambient temperature, and at 75% RH and 40° C. […] The increase of water content appeared to reach a plateau after an initial water sorption period.

[4] abbreviates: about 1:1.2 v/v EtOH/water, ambient temperature.

As for `C[C@H](CCC(=O)O)[C@H]1CC[C@H]2[C@@H]3CC[C@@H]4C[C@H](O)CC[C@]4(C)[C@H]3C[C@H](O)[C@]12C` [Form A, deoxycholic acid], in series [1] (setting [4]), the “Form conversion on slurrying (XRPD)” value is given as “converted to Form C”. In addition, in series [2] (conversions observed upon heating: C→B→D→A), the “Relative thermodynamic stability of the polymorphs” value was “most thermodynamically stable polymorph”.

Take `C[C@H](CCC(=O)O)[C@H]1CC[C@H]2[C@@H]3CC[C@@H]4C[C@H](O)CC[C@]4(C)[C@H]3C[C@H](O)[C@]12C` [Form B, deoxycholic acid]: the “Degradation by HPLC after drying” value in series [3] (50° C.) and in series [3] (70° C.) was “no degradation” in each case. In series [3] (heating up to 70° C.), the “Stability to prolonged heating” value is “stable to prolonged heating at up to 70 °C”. In addition, in series [3] (under vacuum, extended period, 50° C.), the “Stability by HPLC when dried with DI-water and EtOH” value was “stable”. Further, the “Form conversion on slurrying (XRPD)” value is recorded as “remained to be Form B” in series [1] (EtOH/water 1:2.37 v/v, 50° C., 4 hours); “afforded Form C” in series [1] (about 1:1.2 v/v EtOH/water, 50° C., 2 hours); “did not show any form conversion” in series [1] (setting [4]). In addition, the “Form conversion on heating (XRPD)” value is “complete conversion to Form D” in series [2] (30° C. to 135° C. at 10° C./min, held at 135° C. for 30 minutes) and “complete conversion to Form A” in series [2] (30° C. to 150° C. at 10° C./min, held at 150° C. for 30 minutes). Besides, the “Form conversion under humidity stress (XRPD)” value in “Humidity stress (XRPD)” (75% RH, 40° C., 11 days) is “no form conversion”; in “Humidity stress (XRPD)” (95% RH, ambient temperature, 10 days), “no conversion to Form C”; in “Humidity stress (XRPD)” (95% RH, ambient temperature, 11 days) it was “no form conversion”.

With `C[C@H](CCC(=O)O)[C@H]1CC[C@H]2[C@@H]3CC[C@@H]4C[C@H](O)CC[C@]4(C)[C@H]3C[C@H](O)[C@]12C` [Form C, deoxycholic acid], the “Polymorphic form by XRPD after drying” value is given as “form conversion to Form B was complete” in series [3] (dried at 50° C., 2 hours); “form conversion to Form B was complete” in series [3] (dried at 70° C., 2 hours); “converted to Form B” in series [3] (under vacuum at 40° C., 2 hours, two lots); “complete conversion to Form B” in series [3] (under vacuum at 40° C., 18 hours); “converted to Form B” in series [3] (under vacuum at 65° C., 60 hours, solids crystallized from EtOH/water).
